Converted amounts (≈) assume the structure as drawn. Starred links: 1 amine or outer side, 2 acyl side, 3 side chain; linkers in the order of their positions; H or OH if unused. Non-standard residues stand in square brackets, D forms with d. Residues, ends and D or L forms follow the SMILES beside them. *: point of attachment. Trp(7-Me) = Cc1cccc2c(C[C@H](N)C(=O)O)c[nH]c12; C20 diacid = O=C(O)CCCCCCCCCCCCCCCCCCC(=O)*; γGlu = O=C(O)[C@H](CCC(=O)[*:2])N[*:1]; Nle = CCCC[C@H](N)C(=O)O; β3hA = C[C@H](N)CC(=O)O; AEEA = NCCOCCOCC(=O)O
Key:
human GRP receptors = target: T1, human GRP receptors (Homo sapiens, UniProt P30550); assay: IP1 GRPR activity: HTRF IP1-Gq assay in U2OS cells stably expressing human GRP receptors; assay type: cell-based; conditions: 90 minutes incubation, read-out: hIP1 GRPR EC50
T1 construct: host or cells: U2OS

[1] = Food intake and body weight after subcutaneous administration in mice, 16 hours (Example A-2b); assay type: in vivo; conditions: male C57BL/6J mice, single subcutaneous dose, peptide 500 nmol/kg, high fat diet
Source text: Male C57BL/6J mice, approximately 10 weeks old (Jackson Laboratory), were group housed in a 12-h light cycle room (6:00 AM on, 6:00 PM off) upon arrival and acclimated to the facility for a minimum of 1 week prior to the study. Animals were provided standard rodent chow (PicoLab Rodent Diet, 5053) ad libitum. Animals were single caged for a minimum of 3 days prior to the study. During the period prior to the study day, mice were exposed to one pellet of high fat diet (Research Diets D12492i) to avoid any effects of novelty in the study. On three separate days during this run-in period, mice were given one dose of phosphate-buffered saline (PBS; 5 mL/kg) by subcutaneous injection to acclimate them to the procedure. For baseline measures, pre-weighed meals of standard rodent chow were provided to each animal following acclimation dosing at 3:30 PM, and body weight was recorded. The next morning at 9:30 AM, food intake and body weight measurements were recorded at 16 hours following the presentation of the pre-weighed meal. These measurements and the resulting body weight changes were then used to assign mice to balanced cohorts. On the day of the study, mice were weighed and given a subcutaneous dose of either vehicle (PBS, 5 mL/kg; pH 5.0-8.5) or a peptide of the disclosure (500 nmol/kg; pH 5.0-8.5). Following dosing, a pre-weighed high fat diet was provided. Food intake and body weight measurements were taken at 16 hours following the provision of the pre-weighed high fat diet. […] Table 6 below describes the percent reduction in food intake and the percent body weight (BW) change with peptides as measured relative to the vehicle group.

[2] = Pharmacokinetics after intravenous peptide administration in mice; parameters: species or system C57BL/6 mice; conditions: C57BL/6, mouse, in vivo, iv, 2 mg/kg
Protocol: GPR-10 and peptides were dosed IV at 2 mg/kg as a formulation of 0.4 mg/mL in […]+65% water (pH 6-7).

physchem = assay type: physicochemical; conditions: pH 8
Protocol: Solubility was measured in an appropriate buffer as follows. A known amount of compound, e.g., 20 mg, was placed in a vessel equipped with a stirring bar. A measured amount of buffer (e.g., 200-400 μL of 200 mM phosphate buffer) was added, and in some cases, additional surfactants, e.g., polysorbate 80 (PS80), polyethylene glycol (15)-hydroxystearate (Solutol® HS15), etc., were added. A measured amount of purified water (e.g., 1.6 mL) was added, and the pH was adjusted to the desired pH, e.g., pH 8, by addition of 0.5 N aqueous NaOH or 0.5 N aqueous HCl. The volume of added acid or base was recorded. The mixture was stirred at 300 rpm for 10 min. Additional purified water was added to reach a given volume, e.g., 4 mL, of solution. After stirring the sample at 300 rpm at room temperature for 1 h or 24 h, the appearance was observed and the pH measured.

T1 sequence (P30550 whole entry): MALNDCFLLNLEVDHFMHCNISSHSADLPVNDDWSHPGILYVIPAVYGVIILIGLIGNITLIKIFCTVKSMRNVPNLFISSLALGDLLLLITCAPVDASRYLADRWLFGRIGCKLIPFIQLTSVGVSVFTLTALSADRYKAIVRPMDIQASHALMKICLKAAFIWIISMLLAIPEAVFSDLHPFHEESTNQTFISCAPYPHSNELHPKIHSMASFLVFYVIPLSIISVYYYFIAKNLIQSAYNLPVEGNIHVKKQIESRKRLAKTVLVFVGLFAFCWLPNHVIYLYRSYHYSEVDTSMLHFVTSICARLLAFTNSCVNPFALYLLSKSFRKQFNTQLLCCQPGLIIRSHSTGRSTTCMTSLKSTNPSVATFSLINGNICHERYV

SMILES: CCCC[C@H](NC(=O)[C@H](CC(C)C)NC(=O)[C@H](Cc1c[nH]cn1)NC(=O)C[C@H](C)NC(=O)[C@@H](NC(=O)[C@H](C)NC(=O)[C@H](Cc1c[nH]c2c(C)cccc12)NC(=O)[C@H](Cc1c[nH]cn1)NC(=O)[C@H](CCC(=O)O)NC(=O)CNC(=O)COCCOCCNC(=O)COCCOCCNC(=O)CC[C@H](NC(=O)CC[C@H](NC(=O)CCCCCCCCCCCCCCCCCCC(=O)O)C(=O)O)C(=O)O)C(C)C)C(N)=O [Peptide 247, Eicosanedioyl-γGlu-γGlu-OEG-OEG-Gly-Glu-His-7MeTrp-Ala-Val-BABA-His-Leu-Nle-NH2] ({C20 diacid-γGlu-γGlu-AEEA-AEEA}-GEH[Trp(7-Me)]AV[β3hA]HL[Nle]-NH2)
- EC50 (human GRP receptors): 1.8 nM
- % Body Weight Change at 16 hours (compared with vehicle) [1]: −11%
- % Reduction in Cumulative Food Intake over 16 hours (compared with vehicle) [1]: 65%
- clearance [2]: 0.18 mL/min/kg
- half-life [2]: 7.5 h
- solubility at 24 h (physchem): 4200 µg/mL (≈ 2070 µM)

From patent publication US20260176319A1, “PEPTIDE ANALOGS AND METHODS OF USING THE SAME” (Kallyope, Inc., priority 2024, published 2026)
